The values that follow come from ChEMBL document CHEMBL5143606, “Selective Wee1 degradation by PROTAC degraders recruiting VHL and CRBN E3 ubiquitin ligases” (Bioorg Med Chem Lett, 2022).

The term IC50 denotes the point on the concentration scale where inhibition reaches its midpoint.

Calls of active or inactive are those of the source. The rule behind the calls is not given here. Bounds are passed on as bounds.

For test [1], the target named is T1, von Hippel-Lindau disease tumor suppressor/Wee1-like protein kinase (Homo sapiens) (UniProt P30291+P40337). The test is described as follows: PROTAC activity at VHL/Wee1 in human HeLa S3 cells assessed as induction of Wee1 degradation by measuring reduction in CDK1 phosphorylation at Tyr15 residue at above 1 uM measured after 24 to 48 hrs by Western blot analysis. The format is cell-based. To be noted: time 24-48 hrs.

A further test has as its system PC-3. The test can be described thus: Antiproliferative activity against human PC-3 cells assessed as inhibition of cell growth measured after 72 hrs by MTS assay. Format: functional, cell-based. To be noted: PC-3, 72 h.
The next test has as its system BT-549. The test can be described thus: Antiproliferative activity against human BT-549 cells assessed as inhibition of cell growth measured after 72 hrs by MTS assay. Format: functional, cell-based. The conditions noted are these: BT-549, 72 h.
Another test deals with LNCaP. The test is described as follows: Antiproliferative activity against human LNCaP cells assessed as inhibition of cell growth measured after 72 hrs by MTS assay. Format: functional, cell-based. (Formazan colour is commonly taken as a measure of viable cells.)
The subject of another test is MCF7. The test is described as follows: Antiproliferative activity against human MCF7 cells assessed as inhibition of cell growth measured after 72 hrs by MTS assay. The format is functional, cell-based. To be noted: MCF7, 72 h.
For test [2], the target named is T1, von Hippel-Lindau disease tumor suppressor/Wee1-like protein kinase (Homo sapiens). The test can be described thus: PROTAC activity at VHL/Wee1 in human HeLa S3 cells assessed as induction of Wee1 degradation at 1 uM measured after 24 to 48 hrs by Western blot analysis. Format: cell-based. To be noted: time 24-48 hrs.
Test [3] concerns the target T2, Protein cereblon/Wee1-like protein kinase (Homo sapiens) (UniProt P30291+Q96SW2). The test is described as follows: PROTAC activity at CRBN/Wee1 in human HeLa S3 cells assessed as induction of Wee1 degradation at 1 uM measured after 24 hrs by Western blot analysis relative to control. The format is cell-based. (In general: Immunoblotting shows a protein as a band on a membrane.)

The target of test [4] is T2, Protein cereblon/Wee1-like protein kinase (Homo sapiens). The test can be described thus: PROTAC activity at CRBN/Wee1 in human HeLa S3 cells assessed as induction of Wee1 degradation by measuring reduction in phosphorylation of CDK1 at Tyr15 residue at 1 uM measured after 24 hrs by Western blot analysis relative to control. The format is cell-based. Also noted: scale not given: the % may be the effect or the level left.

Test [5] has as its target T1, von Hippel-Lindau disease tumor suppressor/Wee1-like protein kinase (Homo sapiens). The test is described as follows: PROTAC activity at VHL/Wee1 in human HeLa S3 cells assessed as induction of Wee1 degradation by measuring reduction in phosphorylation of CDK1 at Tyr15 residue at higher concentration measured after 4 hrs by Western blot analysis. The format is cell-based.

Test [6] shares this target. The test can be described thus: PROTAC activity at VHL/Wee1 in human HeLa S3 cells assessed as induction of Wee1 degradation at 1 uM measured after 24 hrs by Western blot analysis relative to control. The format is cell-based.
Test [7] has the same target. The test can be described thus: PROTAC activity at VHL/Wee1 in human HeLa S3 cells assessed as induction of Wee1 degradation by measuring reduction in phosphorylation of CDK1 at Tyr15 residue at 1 uM measured after 24 hrs by Western blot analysis relative to control. The format is cell-based. Further details: scale not given: the % may be the effect or the level left.

For test [8] the target is unchanged. The test can be described thus: PROTAC activity at VHL/Wee1 in human HeLa S3 cells assessed as induction of Wee1 degradation at 1 uM measured after 4 hrs by Western blot analysis. The format is cell-based.
Test [9] deals with T2, Protein cereblon/Wee1-like protein kinase (Homo sapiens). The test can be described thus: PROTAC activity at CRBN/Wee1 in human HeLa S3 cells assessed as induction of Wee1 degradation at 30 to 10000 nM measured after 4 hrs by Western blot analysis. The format is cell-based. To be noted: dose 30-10000 nM.
Test [10] shares this target. The test is described as follows: PROTAC activity at CRBN/Wee1 in human HeLa S3 cells assessed as induction of Wee1 degradation by measuring reduction in phosphorylation of CDK1 at Tyr15 residue at 100 to 10000 nM measured after 4 hrs by Western blot analysis. Format: cell-based. The conditions noted are these: dose 100-10000 nM.
Test [11] shares this target. The test can be described thus: PROTAC activity at CRBN/Wee1 in human HeLa S3 cells assessed as induction of Wee1 degradation by measuring reduction in phosphorylation of CDK1 at Tyr15 at above 1 uM measured after 24 to 48 hrs by Western blot analysis. Format: cell-based. The conditions noted are these: time 24-48 hrs.
For test [12] the target is unchanged. The test can be described thus: PROTAC activity at CRBN/Wee1 in human HeLa S3 cells assessed as induction of Wee1 degradation at 1 uM measured after 4 hrs by Western blot analysis. Format: cell-based.

Regarding `C=CCn1c(=O)c2cnc(Nc3ccc(N4CCN(CCCC(=O)N[C@H](C(=O)N5C[C@@H](O)C[C@H]5C(=O)NCc5ccc(-c6scnc6C)cc5)C(C)(C)C)CC4)cc3)nc2n1-c1cccc(C(C)(C)O)n1`, the result in [1] and in test [2] was Active. Also, the half-maximal inhibitory concentration (IC50) amounted to 8.7 µM in the test on PC-3, 1.7 µM in the test with BT-549, 3.46 µM in the test on LNCaP and 3.3 µM in the test on MCF7.

With `C=CCn1c(=O)c2cnc(Nc3ccc(N4CCN(CCCC(=O)NCCCCCCCC(=O)NCCNc5cccc6c5C(=O)N(C5CCC(=O)NC5=O)C6=O)CC4)cc3)nc2n1-c1cccc(C(C)(C)O)n1` (configuration not stated), the Activity is 83% in test [3] and 88% in test [4].

`C=CCn1c(=O)c2cnc(Nc3ccc(N4CCN(CCCC(=O)NCCCCCC(=O)N[C@H](C(=O)N5C[C@H](O)C[C@H]5C(=O)NCc5ccc(-c6scnc6C)cc5)C(C)(C)C)CC4)cc3)nc2n1-c1cccc(C(C)(C)O)n1`: in test [5], the outcome was Active. Besides, the Activity in test [6] was 71%; in test [7], 64%.

As to `C=CCn1c(=O)c2cnc(Nc3ccc(N4CCN(CCCC(=O)NCCOCCOCCOCCOCCC(=O)N[C@H](C(=O)N5C[C@H](O)C[C@H]5C(=O)NCc5ccc(-c6scnc6C)cc5)C(C)(C)C)CC4)cc3)nc2n1-c1cccc(C(C)(C)O)n1`, the results for the Activity in test [6] and in [7] were 108% and 80%, respectively. Besides, the result in [8] was Active.

For `C=CCn1c(=O)c2cnc(Nc3ccc(N4CCN(CCCC(=O)NCCOCCOCCOCCNc5cccc6c5C(=O)N(C5CCC(=O)NC5=O)C6=O)CC4)cc3)nc2n1-c1cccc(C(C)(C)O)n1` (configuration not stated), the values for the Activity in test [3] and in test [4] were 59% and 66%, respectively.

As for `C=CCn1c(=O)c2cnc(Nc3ccc(N4CCN(CCCC(=O)NCCNc5cccc6c5C(=O)N(C5CCC(=O)NC5=O)C6=O)CC4)cc3)nc2n1-c1cccc(C(C)(C)O)n1` (configuration not stated), the outcome in test [9] was Active. The Activity in test [3] amounted to 21%; in test [4], 38%.

In the case of `C=CCn1c(=O)c2cnc(Nc3ccc(N4CCN(CCCC(=O)NCCCCCCCCCCC(=O)N[C@H](C(=O)N5C[C@H](O)C[C@H]5C(=O)NCc5ccc(-c6scnc6C)cc5)C(C)(C)C)CC4)cc3)nc2n1-c1cccc(C(C)(C)O)n1`, in test [5], the outcome was Active. Moreover, the Activity in test [6] amounted to 50%; in [7], 47%.

Regarding `C=CCn1c(=O)c2cnc(Nc3ccc(N4CCN(CCCC(=O)NCCOCCNc5cccc6c5C(=O)N(C5CCC(=O)NC5=O)C6=O)CC4)cc3)nc2n1-c1cccc(C(C)(C)O)n1` (configuration not stated), the outcome in test [9] and in test [10] was Active. Moreover, the results for the Activity in [3] and in test [4] were 38% and 41%, respectively.

On to `C=CCn1c(=O)c2cnc(Nc3ccc(N4CCN(CCCC(=O)NCCCCCCCCCCC(=O)NCCNc5cccc6c5C(=O)N(C5CCC(=O)NC5=O)C6=O)CC4)cc3)nc2n1-c1cccc(C(C)(C)O)n1` (configuration not stated), for which the Activity in test [3] and in test [4] was 41% each time.

With `C=CCn1c(=O)c2cnc(Nc3ccc(N4CCN(C)CC4)cc3)nc2n1-c1cccc(C(C)(C)O)n1` [ADAVOSERTIB], the IC50 in the test with PC-3 came to 8 µM; in the test on BT-549 it was 0.49 µM; with LNCaP, 0.5 µM; in the test with MCF7, 1.1 µM.

`C=CCn1c(=O)c2cnc(Nc3ccc(N4CCN(CCCC(=O)NCCCC(=O)N[C@H](C(=O)N5C[C@H](O)C[C@H]5C(=O)NCc5ccc(-c6scnc6C)cc5)C(C)(C)C)CC4)cc3)nc2n1-c1cccc(C(C)(C)O)n1`: the result in test [5] was Active. Also, the Activity came out at 68% in test [6] and 55% in test [7].

Consider `C=CCn1c(=O)c2cnc(Nc3ccc(N4CCN(CCCC(=O)NCCCC(=O)NCCNc5cccc6c5C(=O)N(C5CCC(=O)NC5=O)C6=O)CC4)cc3)nc2n1-c1cccc(C(C)(C)O)n1` (configuration not stated), for which the Activity in [3] worked out at 47%; in [4], 60%.

As for `C=CCn1c(=O)c2cnc(Nc3ccc(N4CCN(CCCC(=O)NCCOCCOCCOCC(=O)NCCNc5cccc6c5C(=O)N(C5CCC(=O)NC5=O)C6=O)CC4)cc3)nc2n1-c1cccc(C(C)(C)O)n1` (configuration not stated), the Activity in [3] came to 96%; in [4], 84%.

As for `C=CCn1c(=O)c2cnc(Nc3ccc(N4CCN(CCCC(=O)NCCOCCOCCOCCOCCNc5cccc6c5C(=O)N(C5CCC(=O)NC5=O)C6=O)CC4)cc3)nc2n1-c1cccc(C(C)(C)O)n1` (configuration not stated), the Activity amounted to 45% in test [3] and 65% in test [4].

On to `C=CCn1c(=O)c2cnc(Nc3ccc(N4CCN(CCCC(=O)NCCCCCCCC(=O)N[C@H](C(=O)N5C[C@H](O)C[C@H]5C(=O)NCc5ccc(-c6scnc6C)cc5)C(C)(C)C)CC4)cc3)nc2n1-c1cccc(C(C)(C)O)n1`, for which, in [5], the outcome was Active. The Activity in test [6] was 68%; in [7] it was 53%.

Take `C=CCn1c(=O)c2cnc(Nc3ccc(N4CCN(CCCC(=O)NCCOCCOCCOCC(=O)N[C@H](C(=O)N5C[C@H](O)C[C@H]5C(=O)NCc5ccc(-c6scnc6C)cc5)C(C)(C)C)CC4)cc3)nc2n1-c1cccc(C(C)(C)O)n1`: the Activity in test [6] stood at 94%; in [7], 72%.

With `C=CCn1c(=O)c2cnc(Nc3ccc(N4CCN(CCCC(=O)NCCOCCOCCOCCOCCOCCNc5cccc6c5C(=O)N(C5CCC(=O)NC5=O)C6=O)CC4)cc3)nc2n1-c1cccc(C(C)(C)O)n1` (configuration not stated), the Activity in test [3] turned out to be 51%; in test [4] it was 78%.

Turning to `C=CCn1c(=O)c2cnc(Nc3ccc(N4CCN(CCCC(=O)NCCOCCOCCNc5cccc6c5C(=O)N(C5CCC(=O)N(C)C5=O)C6=O)CC4)cc3)nc2n1-c1cccc(C(C)(C)O)n1` (configuration not stated), the concentration for half-maximal inhibition (IC50) in the test with PC-3 was > 20 µM; in the test with BT-549, 9 µM; in the test on LNCaP, 11 µM; in the test with MCF7, 11 µM. The result in test [11] was Active.

Consider `C=CCn1c(=O)c2cnc(Nc3ccc(N4CCN(CCCC(=O)NCCCCCC(=O)NCCNc5cccc6c5C(=O)N(C5CCC(=O)NC5=O)C6=O)CC4)cc3)nc2n1-c1cccc(C(C)(C)O)n1` (configuration not stated), for which the figures for the Activity in test [3] and in [4] were 75% and 54%, respectively.

As for `C=CCn1c(=O)c2cnc(Nc3ccc(N4CCN(CCCC(=O)NCCOCCOCC(=O)NCCNc5cccc6c5C(=O)N(C5CCC(=O)NC5=O)C6=O)CC4)cc3)nc2n1-c1cccc(C(C)(C)O)n1` (configuration not stated), the Activity was 81% in test [3] and 80% in test [4]. In addition, in test [12], the outcome was Active.

For the molecule `C=CCn1c(=O)c2cnc(Nc3ccc(N4CCN(CCCC(=O)NCCCCCCNc5cccc6c5C(=O)N(C5CCC(=O)NC5=O)C6=O)CC4)cc3)nc2n1-c1cccc(C(C)(C)O)n1` (configuration not stated), the outcome in test [9] and in [10] was Active. Besides, the Activity in test [3] amounted to 23%; in [4] it was 39%.
